{
  "source": "patent US9585387B1",
  "about": "“PEHAM dendrimers for use in agriculture” (Starpharma Pty Ltd, priority 2009, dated 2017)",
  "key": {"[1]": {"system": "Avena sativa (cv. Echidna)", "assay": "Brownout of oat seedlings after track-sprayer application (Example 21)", "assay_type": "in vivo", "details": "concentrations of 0.1% v/v and above; with GrowChoice 450 g/L glyphosate", "method": "The experiment tested whether the addition of dendrimers at various concentrations increased penetration into plant tissue and thus improved the rate of kill utilizing the herbicide glyphosate IPA (GrowChoice® 450 g/L present as the isopropylamine salt). Oats were selected for assessment of glyphosate efficacy because there is less genetic variation. All dosing was carried out at sublethal doses in order to witness a dose effect which is enhanced with dendrimer. A standard dose in the positive control would result in death of the oats and would be presumably replicated in the dendrimer treatments.\nAvena sativa (cv. Echidna) was sown in 10 cm diameter pots filled with potting mix (AS 3743). Enough seeds were planted to ensure a minimum of seven seedlings per treatment group. Seeds were germinated in a temperature-controlled greenhouse (14° C.-25° C.) for 7 days. […]\nThe herbicide, glyphosate IPA (GrowChoice® 450 g/L present as the isopropylamine salt), was applied using an enclosed laboratory track-sprayer fitted with three 110° flat fan nozzles (Teejet XR11001-VS) spaced at 50 cm intervals across the boom. […] A total of 5 concentrations of the Example 2 G1-OH dendrimer (0.01, 0.05, 0.1, 0.2 & 0.5% v/v) were evaluated for enhancement of herbicidal effect at each of the rates of glyphosate tested (35, 70, 140 & 280 g ai/ha).\nAfter 10 days the treated plants were assessed for % brownout. […]"}, "[2]": {"assay": "Solubility of active constituents in dendrimer solutions by HPLC (Example 26)", "assay_type": "physicochemical", "method": "Four PEHAM dendrimers, each at 10 g/L and 100 g/L in water, were used for evaluation. A 15 g of each dendrimer was dissolved in distilled water and made accurately to 150 mL volume. Determination of pH was then made using a calibrated pH meter and electrode.\nTo prepare saturated solutions of active constituent in 100 g/L dendrimer solutions, 10 mL of each 100 g/L dendrimer solution was placed into a 50 mL test tube and 0.2 g of active constituent was then also added. The test tube was then briefly shaken to disperse the contents, before being placed in an ultrasonic water bath, and subjected to sonication for 30 mins at […] The test tube and contents were then cooled to […] and then a 2.0 mL aliquot was taken and filtered through a 0.45 μm PTFE membrane filter.\nTo prepare saturated solutions of active constituent in 10 g/L dendrimer solutions, 1.0 mL of each 100 g/L dendrimer solution was placed into a 50 mL test tube and a 9.0 mL aliquot of distilled water added and 0.2 g of active constituent was then also added. The test tube was then briefly shaken to disperse the contents, before being placed in an ultrasonic water bath, and subjected to sonication for 30 mins at […] The test tube and contents were then cooled to […] and then a 2.0 mL aliquot was taken and filtered through a 0.45 μm PTFE membrane filter\nEach prepared and filtered solution was examined in a light box for Tyndall Scattering (light scattering by particles in a colloid or particles in a fine suspension). A visual observation was made and recorded for each solution. Ten active constituents that were selected to cover a range of water solubility were treated according to the method described here. A total of 200 filtered solutions were prepared.\nHigh Performance Liquid Chromatography was used to analyse each active constituent in each dendrimer solution. Each saturated active constituent solution was freshly prepared for immediate analysis or frozen at <−15° C. where analysis could not take place within 2 hours of preparation. The following are details of the HPLC equipment used. For each active constituent a set of 4 calibration solutions was prepared 0 to 25 ppm. A sequence of injections comparing the peak area of the calibration solutions and the dendrimer solutions was then undertaken. The dendrimer solutions were diluted as required to maintain their respective peak area response within the calibration range. The active constituent concentration (ppm) in the dendrimer solution was determined by calculation: RF×SA×DF, where RF=Response Factor (concentration of calibration solution per unit of peak area, SA=Sample Peak Area (peak area of the sample solution), and DF=Dilution Factor (dilution of the sample solution). HPLC conditions were varied to ensure the optimum detection and separation of each active constituent from excipients."}, "physchem": {"assay": "physchem", "assay_type": "physicochemical", "details": "water; at pH 7; trifluralin control without dendrimer; read-out: Solubility assessment by GC assay", "protocol": "To a 10% w/w solution of agrochemical active dissolved in a suitable volatile organic solvent, (e.g., MeOH, DCM, EtOH, acetone or other appropriate solvent) was added a 10% w/w solution of dendrimer in either water or the same organic solvent as above. The mixture was left to stir for 2-4 h after which time the volatile organic solvent was then removed under reduced pressure to provide a 1:1 mixture of the active and dendrimer. This oily solution was then dissolved in water and filtered. Analysis of active content in the aqueous solution by HPLC or GC assay provided an estimate of the solubility increase due to the addition of the dendrimer."}},
  "data": [
    {"smiles": "CCC(COCC(O)CN(CCO)CCO)(COCC(O)CN(CCO)CCO)COCC(O)CN(CCO)CCO", "note": "(stereo not shown) [Example 2, [(C)=TMPTGE; (FF)=Et; (IF1)=OH; (BR1)=DEA; (TF)=OH; G=1]]", "values": [
      {"measurement": "rate of brownout", "setting": "[1]", "value": "did enhance the rate of brownout"},
      {"measurement": "Ratio of Active Ingredient in Dendrimer Solution (ppm) to Active Ingredient in Water (ppm)", "setting": "[2]; 6-BAP, 10 g/L loading", "value": 4},
      {"measurement": "Ratio of Active Ingredient in Dendrimer Solution (ppm) to Active Ingredient in Water (ppm)", "setting": "[2]; 6-BAP, 100 g/L loading", "value": 967},
      {"measurement": "Ratio of Active Ingredient in Dendrimer Solution (ppm) to Active Ingredient in Water (ppm)", "setting": "[2]; Bifenthrin, 10 g/L loading", "value": 1},
      {"measurement": "Ratio of Active Ingredient in Dendrimer Solution (ppm) to Active Ingredient in Water (ppm)", "setting": "[2]; Bifenthrin, 100 g/L loading", "value": 1},
      {"measurement": "Ratio of Active Ingredient in Dendrimer Solution (ppm) to Active Ingredient in Water (ppm)", "setting": "[2]; Clomazone, 10 g/L loading", "value": 1},
      {"measurement": "Ratio of Active Ingredient in Dendrimer Solution (ppm) to Active Ingredient in Water (ppm)", "setting": "[2]; Clomazone, 100 g/L loading", "value": 1},
      {"measurement": "Ratio of Active Ingredient in Dendrimer Solution (ppm) to Active Ingredient in Water (ppm)", "setting": "[2]; Flumetsulam, 10 g/L loading", "value": 2},
      {"measurement": "Ratio of Active Ingredient in Dendrimer Solution (ppm) to Active Ingredient in Water (ppm)", "setting": "[2]; Flumetsulam, 100 g/L loading", "value": 4},
      {"measurement": "Ratio of Active Ingredient in Dendrimer Solution (ppm) to Active Ingredient in Water (ppm)", "setting": "[2]; Mcylobutanil, 10 g/L loading", "value": 2},
      {"measurement": "Ratio of Active Ingredient in Dendrimer Solution (ppm) to Active Ingredient in Water (ppm)", "setting": "[2]; Mcylobutanil, 100 g/L loading", "value": 4},
      {"measurement": "Ratio of Active Ingredient in Dendrimer Solution (ppm) to Active Ingredient in Water (ppm)", "setting": "[2]; Penconazole, 10 g/L loading", "value": 2},
      {"measurement": "Ratio of Active Ingredient in Dendrimer Solution (ppm) to Active Ingredient in Water (ppm)", "setting": "[2]; Penconazole, 100 g/L loading", "value": 43},
      {"measurement": "Ratio of Active Ingredient in Dendrimer Solution (ppm) to Active Ingredient in Water (ppm)", "setting": "[2]; Pendimethalin, 10 g/L loading", "value": 1},
      {"measurement": "Ratio of Active Ingredient in Dendrimer Solution (ppm) to Active Ingredient in Water (ppm)", "setting": "[2]; Pendimethalin, 100 g/L loading", "value": 6},
      {"measurement": "Ratio of Active Ingredient in Dendrimer Solution (ppm) to Active Ingredient in Water (ppm)", "setting": "[2]; Propaquizafop, 10 g/L loading", "value": 1},
      {"measurement": "Ratio of Active Ingredient in Dendrimer Solution (ppm) to Active Ingredient in Water (ppm)", "setting": "[2]; Propaquizafop, 100 g/L loading", "value": 1},
      {"measurement": "Ratio of Active Ingredient in Dendrimer Solution (ppm) to Active Ingredient in Water (ppm)", "setting": "[2]; Thiamethoxam, 10 g/L loading", "value": 2},
      {"measurement": "Ratio of Active Ingredient in Dendrimer Solution (ppm) to Active Ingredient in Water (ppm)", "setting": "[2]; Thiamethoxam, 100 g/L loading", "value": 2},
      {"measurement": "Ratio of Active Ingredient in Dendrimer Solution (ppm) to Active Ingredient in Water (ppm)", "setting": "[2]; Thidiazuron, 10 g/L loading", "value": 7},
      {"measurement": "Ratio of Active Ingredient in Dendrimer Solution (ppm) to Active Ingredient in Water (ppm)", "setting": "[2]; Thidiazuron, 100 g/L loading", "value": 39}
    ]},
    {"smiles": "CCCN(CCC)c1c([N+](=O)[O-])cc(C(F)(F)F)cc1[N+](=O)[O-]", "note": "[trifluralin]", "values": [
      {"measurement": "solubility", "setting": "physchem", "value": 0.22, "unit": "µg/mL"}
    ]}
  ]
}
